According to the supplement of paper PMC10307832:

Assays:
Assay in all cases: relative viability (nuclei count vs DMSO), 5 days (fraction); higher = more cells survive
Afatinib + Linsitinib = compound: CN(C)C/C=C/C(=O)Nc1cc2c(Nc3ccc(F)c(Cl)c3)ncnc2cc1O[C@H]1CCOC1 [Afatinib] + C[C@]1(O)C[C@@H](c2nc(-c3ccc4ccc(-c5ccccc5)nc4c3)c3c(N)nccn32)C1 [Linsitinib] (partner 1 µM)
In short: (§1)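 Lung cancer cell lines in 1536-well plates were dosed by pin tool the day after seeding, either with one drug alone or with a fixed anchor-drug dose plus five library-drug doses (not always all listed) in √10 steps. After 5 days, cells were fixed and their nuclei stained in one step (final 0.05% Triton X-100, 1% formaldehyde, 1 ug/ml Hoechst), then counted on 4× images. Relative viability is the nuclei count in treated wells divided by that in vehicle wells. Values are medians of duplicate plates.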

Afatinib + Pemetrexed = compound: CN(C)C/C=C/C(=O)Nc1cc2c(Nc3ccc(F)c(Cl)c3)ncnc2cc1O[C@H]1CCOC1 [Afatinib] + Nc1nc2[nH]cc(CCc3ccc(C(=O)N[C@@H](CCC(=O)O)C(=O)O)cc3)c2c(=O)[nH]1 [Pemetrexed] (partner 0.2 µM)
In short: as §1

Afatinib + Vorinostat = compound: CN(C)C/C=C/C(=O)Nc1cc2c(Nc3ccc(F)c(Cl)c3)ncnc2cc1O[C@H]1CCOC1 [Afatinib] + O=C(CCCCCCC(=O)Nc1ccccc1)NO [Vorinostat] (partner 1 µM)
In short: as §1

Afatinib + Olaparib = compound: CN(C)C/C=C/C(=O)Nc1cc2c(Nc3ccc(F)c(Cl)c3)ncnc2cc1O[C@H]1CCOC1 [Afatinib] + O=C(c1cc(Cc2n[nH]c(=O)c3ccccc23)ccc1F)N1CCN(C(=O)C2CC2)CC1 [Olaparib] (partner 8 µM)
In short: as §1

Cell Line | relative viability (Afatinib + Linsitinib; first compound 0.005 µM) | relative viability (Afatinib + Linsitinib; first compound 0.01581 µM) | relative viability (Afatinib + Linsitinib; first compound 0.05 µM) | relative viability (Afatinib + Linsitinib; first compound 0.1581 µM) | relative viability (Afatinib + Linsitinib; first compound 0.5 µM) | relative viability (Afatinib + Pemetrexed; first compound 0.005 µM) | relative viability (Afatinib + Pemetrexed; first compound 0.01581 µM) | relative viability (Afatinib + Pemetrexed; first compound 0.05 µM) | relative viability (Afatinib + Pemetrexed; first compound 0.1581 µM) | relative viability (Afatinib + Pemetrexed; first compound 0.5 µM) | relative viability (Afatinib + Vorinostat; first compound 0.005 µM) | relative viability (Afatinib + Vorinostat; first compound 0.01581 µM) | relative viability (Afatinib + Vorinostat; first compound 0.05 µM) | relative viability (Afatinib + Vorinostat; first compound 0.1581 µM) | relative viability (Afatinib + Vorinostat; first compound 0.5 µM) | relative viability (Afatinib + Olaparib; first compound 0.005 µM) | relative viability (Afatinib + Olaparib; first compound 0.01581 µM) | relative viability (Afatinib + Olaparib; first compound 0.05 µM) | relative viability (Afatinib + Olaparib; first compound 0.1581 µM) | relative viability (Afatinib + Olaparib; first compound 0.5 µM)
201T | 1.06 | 0.986 | 0.909 | 0.86 | 0.897 | 0.294 | 0.353 | 0.379 | 0.38 | 0.31 | 0.936 | 0.902 | 0.922 | 0.783 | 0.957 | 0.846 | 0.826 | 0.752 | 0.78 | 0.854
A-427 | 1.1 | 1.15 | 1.11 | 1.08 | 1.07 | 1.05 | 1.03 | 1.05 | 0.969 | 0.983 | 0.929 | 0.89 | 0.848 | 0.833 | 0.908 | 0.79 | 0.759 | 0.779 | 0.776 | 0.789
ABC-1 | 0.851 | 0.647 | 0.788 | 0.466 | 0.584 |  |  |  |  |  | 1.47 |  | 1.13 | 1.24 | 1.08 | 0.779 |  | 1.04 | 1.04 | 0.561
BEN | 0.988 | 0.875 | 1.01 | 0.895 | 0.962 | 0.801 | 0.785 | 0.753 | 0.772 | 0.819 | 0.588 | 0.564 | 0.559 | 0.557 | 0.574 | 1.23 | 1.23 | 1.18 | 1.11 | 1.08
CAL-12T | 0.732 | 0.584 | 0.65 | 0.409 | 0.399 | 1.22 | 0.928 | 1.46 | 0.491 | 0.855 | 0.727 | 0.647 | 0.552 | 0.364 | 0.396 | 0.763 | 0.668 | 0.616 | 0.47 | 0.497
COR-L23 | 0.874 | 0.894 | 0.883 | 0.825 | 0.848 | 0.22 | 0.201 | 0.214 | 0.201 | 0.192 | 0.682 | 0.443 | 0.484 | 0.39 | 0.485 | 0.325 | 0.325 | 0.358 | 0.369 | 0.366
Calu-6 | 0.858 | 0.876 | 1.06 | 0.933 | 0.891 |  |  |  |  |  |  |  |  |  |  | 0.565 | 0.565 | 0.607 | 0.573 | 0.545
ChaGo-K-1 |  |  |  |  |  | 0.246 | 0.262 | 0.268 | 0.257 | 0.247 | 0.81 | 0.777 | 0.789 | 0.754 | 0.695 | 0.466 | 0.439 | 0.447 | 0.396 | 0.397
EBC-1 | 0.72 | 0.827 | 0.903 | 0.783 | 0.903 |  |  |  |  |  |  |  |  |  |  | 0.714 | 0.76 | 0.745 | 0.676 | 0.734
IA-LM | 0.67 | 0.713 | 0.502 | 0.571 | 0.601 |  |  |  |  |  | 1.1 | 0.964 | 0.866 | 0.81 | 0.892 | 1.07 | 0.821 | 0.947 | 0.761 | 0.805
NCI-H727 | 0.282 | 0.307 | 0.284 | 0.267 | 0.28 |  |  |  |  |  | 1.08 | 0.953 | 1 | 0.906 | 0.956 | 0.827 | 0.824 | 0.606 | 0.572 | 0.815
NCI-H1299 | 0.978 | 0.951 | 0.987 | 1.06 | 0.97 |  |  |  |  |  |  |  |  |  |  | 0.981 | 0.948 | 0.991 | 1.02 | 0.988
NCI-H1563 | 1.32 | 1.14 | 1.27 | 1.06 | 1.21 | 0.782 | 0.719 | 0.921 | 0.777 | 0.822 |  |  |  |  |  |  |  |  |  | 
NCI-H1648 |  |  |  |  |  | 0.99 | 1.1 | 0.458 | 0.431 | 0.426 | 0.398 | 0.421 | 0.271 | 0.421 | 0.26 | 0.978 | 0.617 | 0.391 | 0.323 | 0.469
NCI-H1650 |  |  |  |  |  | 0.31 | 0.291 | 0.344 | 0.284 | 0.3 | 0.462 | 0.424 | 0.599 | 0.472 | 0.432 | 0.784 | 0.708 | 0.804 | 0.712 | 0.547
NCI-H1703 | 0.49 |  | 0.651 | 0.608 | 0.585 |  |  |  |  |  |  |  |  |  |  | 0.538 |  | 0.411 | 0.297 | 0.445
NCI-H1792 | 0.533 | 0.616 | 0.497 | 0.533 | 0.484 | 0.781 | 0.647 | 0.751 | 0.824 | 0.522 |  |  |  |  |  | 0.437 | 0.531 | 0.506 | 0.526 | 0.489
NCI-H2170 |  |  |  |  |  | 0.251 | 0.245 | 0.25 | 0.214 | 0.212 | 0.618 | 0.697 | 0.271 | 0.201 | 0.2 | 0.624 | 0.598 | 0.475 | 0.169 | 0.155
NCI-H2342 |  |  |  |  |  | 0.763 | 0.762 | 0.706 | 0.777 | 0.747 | 0.706 | 0.628 | 0.729 | 0.695 | 0.696 | 0.375 | 0.457 | 0.411 | 0.347 | 0.406
